ChEMBL document CHEMBL2331256, “Spiro heterocycles as potential inhibitors of SIRT1: Pd/C-mediated synthesis of novel N-indolylmethyl spiroindoline-3,2'-quinazolines” (Bioorg Med Chem Lett, 2013)

Columns and labels:
Saccharomyces cerevisiae = test: Cytotoxicity against yeast at 50 uM; format: organism-based; conditions: in vivo
[1] = target: NAD-dependent histone deacetylase SIR2 (Saccharomyces cerevisiae S288c) (UniProt P06700); test: Inhibition of Sir 2 protein mediated transcriptional silencing at the telomeric locus in yeast at 50 uM after 24 to 48 hrs by URA3 reporter gene assay
Chain of NAD-dependent histone deacetylase SIR2 (Saccharomyces cerevisiae S288c) (P06700 whole entry): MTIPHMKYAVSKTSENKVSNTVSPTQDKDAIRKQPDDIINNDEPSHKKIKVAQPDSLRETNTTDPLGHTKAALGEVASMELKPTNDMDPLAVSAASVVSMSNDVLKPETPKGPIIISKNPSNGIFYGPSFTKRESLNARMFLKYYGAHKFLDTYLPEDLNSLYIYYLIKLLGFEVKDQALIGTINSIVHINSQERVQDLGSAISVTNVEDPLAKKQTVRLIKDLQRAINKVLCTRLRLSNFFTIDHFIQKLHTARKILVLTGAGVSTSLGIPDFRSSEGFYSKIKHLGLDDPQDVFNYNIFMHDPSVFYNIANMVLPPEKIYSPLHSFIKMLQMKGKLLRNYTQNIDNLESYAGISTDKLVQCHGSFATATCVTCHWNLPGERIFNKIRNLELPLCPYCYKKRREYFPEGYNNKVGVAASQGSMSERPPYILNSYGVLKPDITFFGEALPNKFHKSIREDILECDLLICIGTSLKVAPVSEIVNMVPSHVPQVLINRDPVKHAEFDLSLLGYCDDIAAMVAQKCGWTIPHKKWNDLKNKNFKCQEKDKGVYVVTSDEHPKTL

[2] = target: NAD-dependent histone deacetylase SIR2 (Saccharomyces cerevisiae S288c) (UniProt P06700); test: Inhibition of Sir 2 protein mediated transcriptional silencing at the telomeric locus in yeast after 24 to 48 hrs by URA3 reporter gene assay
[3] = target: NAD-dependent histone deacetylase SIR2 (Saccharomyces cerevisiae S288c) (UniProt P06700); test: Inhibition of Sir 2 protein mediated transcriptional silencing at the telomeric locus in yeast at 100 uM after 24 to 48 hrs by URA3 reporter gene assay
[4] = target: NAD-dependent histone deacetylase SIR2 (Saccharomyces cerevisiae S288c) (UniProt P06700); test: Inhibition of Sir 2 protein mediated transcriptional silencing at the telomeric locus in yeast at 1 uM after 24 to 48 hrs by URA3 reporter gene assay
[5] = target: NAD-dependent histone deacetylase SIR2 (Saccharomyces cerevisiae S288c) (UniProt P06700); test: Inhibition of Sir 2 protein mediated transcriptional silencing at the telomeric locus in yeast at 30 uM after 24 to 48 hrs by URA3 reporter gene assay
[6] = target: NAD-dependent histone deacetylase SIR2 (Saccharomyces cerevisiae S288c) (UniProt P06700); test: Inhibition of Sir 2 protein mediated transcriptional silencing at the telomeric locus in yeast at 10 uM after 24 to 48 hrs by URA3 reporter gene assay

inhibition [1] [%] | inhibition [2] | inhibition [3] [%] | inhibition [4] [%] | inhibition [5] [%] | inhibition [6] [%] | SMILES | Activity (Saccharomyces cerevisiae)
30.9 | – | – | – | – | – | CS(=O)(=O)n1c(CN2C(=O)C3(NC(=O)c4ccccc4N3)c3ccccc32)cc2cc(Cl)ccc21 (stereo not drawn) | Non-toxic
40.9 | Dose-dependent effect | 56 | 18 | 37 | 30 | Cc1ccc(S(=O)(=O)n2c(CN3C(=O)C4(NC(=O)c5ccccc5N4)c4ccccc43)cc3cc(Cl)ccc32)cc1 (stereo not drawn) | Non-toxic
39 | Dose-dependent effect | 67 | 9 | 29 | 20 | COc1ccc2c(c1)cc(CN1C(=O)C3(NC(=O)c4ccccc4N3)c3ccccc31)n2S(C)(=O)=O (stereo not drawn) | Non-toxic
40.9 | – | – | – | – | – | Cc1ccc2c(c1)cc(CN1C(=O)C3(NC(=O)c4ccccc4N3)c3ccccc31)n2S(C)(=O)=O (stereo not drawn) | Non-toxic
16.4 | – | – | – | – | – | Cc1ccc(S(=O)(=O)n2c(CN3C(=O)C4(NC(=O)c5ccccc5N4)c4ccccc43)cc3cc(Br)ccc32)cc1 (stereo not drawn) | Non-toxic
15.2 | – | – | – | – | – | Cc1ccc(S(=O)(=O)n2c(CN3C(=O)C4(NC(=O)c5ccccc5N4)c4ccccc43)cc3cc(F)ccc32)cc1 (stereo not drawn) | Non-toxic
38.5 | – | – | – | – | – | CS(=O)(=O)n1c(CN2C(=O)C3(NC(=O)c4ccccc4N3)c3ccccc32)cc2cc(Br)ccc21 (stereo not drawn) | Non-toxic
36.5 | – | – | – | – | – | Cc1ccc(S(=O)(=O)n2c(CN3C(=O)C4(NC(=O)c5ccccc5N4)c4ccccc43)cc3ccccc32)cc1 (stereo not drawn) | Non-toxic
39.6 | – | – | – | – | – | CS(=O)(=O)n1c(CN2C(=O)C3(NC(=O)c4ccccc4N3)c3ccccc32)cc2cc(C(F)(F)F)ccc21 (stereo not drawn) | Non-toxic
38.4 | – | – | – | – | – | Cc1ccc(S(=O)(=O)n2c(CN3C(=O)C4(NC(=O)c5ccccc5N4)c4ccccc43)cc3cc(C(F)(F)F)ccc32)cc1 (stereo not drawn) | Non-toxic
13.9 | – | – | – | – | – | CS(=O)(=O)n1c(CN2C(=O)C3(NC(=O)c4ccccc4N3)c3ccccc32)cc2ccccc21 (stereo not drawn) | Non-toxic
41 | Dose-dependent effect | 61 | 12 | 32 | 25 | COc1ccc2c(c1)cc(CN1C(=O)C3(NC(=O)c4ccccc4N3)c3ccccc31)n2S(=O)(=O)c1ccc(C)cc1 (stereo not drawn) | Non-toxic
1.2 | – | – | – | – | – | Cc1ccc(S(=O)(=O)n2c(CN3C(=O)C4(NC(=O)c5ccccc5N4)c4ccccc43)cc3cc(C)ccc32)cc1 (stereo not drawn) | Non-toxic
30.3 | – | – | – | – | – | CS(=O)(=O)n1c(CN2C(=O)C3(NC(=O)c4ccccc4N3)c3ccccc32)cc2cc(F)ccc21 (stereo not drawn) | Non-toxic
